Results: EP4703354A1, “COMPOUND AS CCR6 ANTAGONIST, AND PHARMACEUTICAL COMPOSITION AND USE THEREOF” (Wuhan Createrna Science and Technology Co.,Ltd., priority 2023, dated 2024)

Assays:
human CCR6 = target: T1, human CCR6 (Homo sapiens, UniProt P51684); experiment: human CCR6 calcium flux activity (FLIPR, HEK293 cells stably expressing human CCR6, CCL20 stimulation); assay type: cell-based; conditions: HEK293 cells stably expressing human CCR6, EC80 human MIP-3 alpha/CCL20; read-out: CCR6 inhibitory activity, IC50
T1 construct: expressed in transfected cells; host or cells: HEK293
T1 sequence (P51684 1-374): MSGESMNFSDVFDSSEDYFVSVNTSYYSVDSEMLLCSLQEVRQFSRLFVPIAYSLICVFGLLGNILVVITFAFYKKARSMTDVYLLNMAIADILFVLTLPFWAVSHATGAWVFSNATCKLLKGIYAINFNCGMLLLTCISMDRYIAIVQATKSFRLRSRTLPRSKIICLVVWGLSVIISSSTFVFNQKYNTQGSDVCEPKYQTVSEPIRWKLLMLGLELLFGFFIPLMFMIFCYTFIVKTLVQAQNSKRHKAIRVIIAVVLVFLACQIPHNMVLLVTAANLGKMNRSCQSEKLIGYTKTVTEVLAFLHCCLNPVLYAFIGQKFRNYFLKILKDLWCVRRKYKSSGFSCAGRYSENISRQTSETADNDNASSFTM
Procedure: The activity of the compounds was evaluated using HEK293 cells stably expressing human CCR6 via the FLIPR platform. A 384-well black cell culture plate (Greiner, 781946) was used, with a seeding density of 20,000 cells/well, and incubated overnight at 37°C in a 5% CO2 incubator. The culture medium in the cell plate wells was removed, and 20 µL of Fluo-4 Direct™ Calcium Assay Buffer (Invitrogen, F10471, Component C), 20 µL of 2× Fluo-4 Direct™ Calcium Assay Reagent (Invitrogen, F10471, Component A) working solution, and 10 µL of 6× test compound working solution were sequentially added to each well. The cell plate was incubated in a 37 °C, 5% CO2 incubator for 50 min, followed by a 10 min incubation at room temperature. Additionally, a 6×EC80 human MIP-3 alpha/CCL20 (MCE, HY-P7262) working solution was prepared. After the incubation was completed, 10 µL/well of the 6×EC80 human MIP-3 alpha/CCL20 working solution was transferred to the cell plate using a FLIPR instrument, and the fluorescence signal changes at an excitation wavelength of 494 nm and an emission wavelength of 516 nm were recorded over 90 seconds. The difference between the maximum fluorescence signal (RFUMax) and the minimum fluorescence signal (RFUMin) was used as the output signal. The compound inhibition rate and the log value of the compound concentration were calculated, and a four-parameter fitting analysis was performed using GraphPad Prism 8 software to obtain the IC50 value of the test compound.

[1] = in vivo pharmacokinetic study in SD rats; conditions: male, rat, plasma; for bioavailability: 1 mg/kg PO vs 1 mg/kg IV, read-out: Oral bioavailability F (%)
Procedure: 2.2.1 Rats: SD rats, SPF grade, 6 rats per compound, male, body weight range 180-200 g.
2.2.2 Housing conditions: The animals were housed in an SPF-grade animal facility with free access to food and water, three per cage, under a 12/12-hour light/dark cycle (7:00 am/7:00 pm), at a temperature of 23 ± 3°C.
2.2.3 Drug preparation: The compound was precisely weighed, mixed with the required volume of 1% Tween 80, vortexed for 2 min, and then sonicated for 5 min until no visible particles remained. The mixture was subsequently stirred on a magnetic stirrer for 20 min, and the middle layer of the drug solution was collected for administration. For the IV group, the compound was accurately weighed, dissolved in the required volume of 50% PEG400, sonicated for 10 min, and vortexed until clear before administration.
The rats were randomly divided into 2 groups based on body weight, with 3 rats per compound per group. Group 1 was administered a single oral gavage dose (fasted), and Group 2 was administered a single tail vein bolus injection. Blood collection time points: for the po group, blood was collected at 0.167 h, 0.5 h, 1 h, 2 h, 3 h, 4 h, 6 h, and 8 h; for the iv group, blood was collected at 0.033 h, 0.167 h, 0.5 h, 1 h, 2 h, 4 h, 6 h, and 8 h.
After administration to the rats, blood was collected from the orbital venous plexus according to the sampling time points. Approximately 0.2-0.3 mL of blood was collected at each time point into anticoagulant EP tubes (containing 4 µL of EDTA-K2, 375 mg/mL, dried at 50°C). The tubes were slowly inverted up and down three times and stored in an ice box (for no more than 30 minutes). Centrifugation was performed at 4°C at 3000 × g for 10 minutes, and the supernatant was transferred to labeled EP tubes for bioanalytical testing. If testing could not be performed on the same day, the samples were stored at -80°C until analysis (care was taken to avoid multiple freeze/thaw cycles).
The data were analyzed using WinNonlin via a non-compartmental model to obtain PK parameters (Cmax, AUC0-last, AUCinf, T1/2, etc., selected based on different routes of administration). For specific data, please refer to Table 2. Table 2. PK experimental results of compounds in SD rats

Row | Structure (SMILES) | IC50 (human CCR6) [nM] | also measured
1 | Cc1ccc(F)nc1C(Nc1c(Nc2ccnc(C(=O)N(C)C)c2O)c(=O)c1=O)C1(C)CC2CC2C1 (stereo not shown) [compound 121, 4-((2-(((6-fluoro-3-methylpyridin-2-yl)(3-methylbicyclo[3.1.0]hexan-3-yl)methyl)amino)-3,4-dioxocyclobut-1-en-1-yl)amino)-3-hydroxy-N,N-dimethylpicolinamide] | 86.2 | –
2 | Cc1cncnc1C(Nc1c(Nc2ccnc(C(=O)N(C)C)c2O)c(=O)c1=O)C1(C)CCCC1 (stereo not shown) [compound 052, 3-hydroxy-N,N-dimethyl-4-((2-(((1-methylcyclopentyl)(5-methylpyrimidin-4-yl)methyl)amino)-3,4-dioxocyclobut-1-en-1-yl)amino)picolinamide] | 196 | –
3 | Cc1cccnc1[C@H](Nc1c(Nc2ccc(F)c(C(=O)N(C)C)c2O)c(=O)c1=O)C1(C)CCCC1 [compound 104, (R)-6-fluoro-2-hydroxy-N,N-dimethyl-3-((2-(((1-methylcyclopentyl)(3-methylpyridin-2-yl)methyl)amino)-3,4-dioxocyclobut-1-en-1-yl)amino)benzamide] | 4 | –
4 | Cc1cccnc1[C@H](Nc1c(Nc2ccnc(C(=O)N(C)C)c2O)c(=O)c1=O)C1(C)CC(F)(F)C1 [compound 079, (R)-4-((2-(((3,3-difluoro-1-methylcyclobutyl)(3-methylpyridin-2-yl)methyl)amino)-3,4-dioxocyclobut-1-en-1-yl)amino)-3-hydroxy-N,N-dimethylpicolinamide] | 17.3 | bioavailability [1]: 42.5%; AUC(0-t) ([1]; 1 mg/kg, IV): 1180 ng·h/mL; Cmax ([1]; 1 mg/kg, IV): 3670 ng/mL; AUC(0-t) ([1]; 1 mg/kg, PO): 499 ng·h/mL; Cmax ([1]; 1 mg/kg, PO): 566 ng/mL; half-life ([1]; 1 mg/kg, PO): 2.01 h
5 | Cc1cccnc1C(Nc1c(Nc2ccnc(C(=O)N(C)C)c2O)c(=O)c1=O)C1(C)CC2CC2C1 (stereo not shown) [compound 122, 3-hydroxy-N,N-dimethyl-4-((2-(((3-methylbicyclo[3.1.0]hexan-3-yl)(3-methylpyridin-2-yl)methyl)amino)-3,4-dioxocyclobut-1-en-1-yl)amino)picolinamide] | 181 | –

Continued by falling IC50 (human CCR6), values first:

Row | IC50 (human CCR6) [nM] | Structure (SMILES) | also measured
6 | 265 | Cc1cccnc1C(Nc1c(Nc2ccnc(C(=O)N(C)C)c2O)c(=O)c1=O)C1(C)CCC2CC21 (stereo not shown) [compound 123, 3-hydroxy-N,N-dimethyl-4-((2-(((2-methylbicyclo[3.1.0]hexan-2-yl)(3-methylpyridin-2-yl)methyl)amino)-3,4-dioxocyclobut-1-en-1-yl)amino)picolinamide] | –
7 | 74 | CN(C)C(=O)c1nccc(Nc2c(N[C@@H](c3cnccn3)C3(C)CCCC3)c(=O)c2=O)c1O [compound 006, (R)-3-hydroxy-N,N-dimethyl-4-((2-(((1-methylcyclopentyl)(pyrazin-2-yl)methyl)amino)-3,4-dioxocyclobut-1-en-1-yl)amino)picolinamide] | –
8 | 60.8 | Cc1c(Cl)ccnc1[C@H](Nc1c(Nc2ccnc(C(=O)N(C)C)c2O)c(=O)c1=O)C1(C)CCCC1 [compound 048, (R)-4-((2-(((4-chloro-3-methylpyridin-2-yl)(1-methylcyclopentyl)methyl)amino)-3,4-dioxocyclobut-1-en-1-yl)amino)-3-hydroxy-N,N-dimethylpicolinamide] | –
9 | 47.4 | CN(C)C(=O)c1nccc(Nc2c(N[C@@H](c3ccc(F)c(F)n3)C3(C)CCCC3)c(=O)c2=O)c1O [compound 024, (R)-4-((2-(((5,6-difluoropyridin-2-yl)(1-methylcyclopentyl)methyl)amino)-3,4-dioxocyclobut-1-en-1-yl)amino)-3-hydroxy-N,N-dimethylpicolinamide] | –
10 | 17.6 | Cc1cccnc1[C@H](Nc1c(Nc2ccnc(C(=O)N(C)C)c2O)c(=O)c1=O)C12CC(C1)C2 [compound 077, (R)-4-((2-((bicyclo[1.1.1]pentan-1-yl(3-methylpyridin-2-yl)methyl)amino)-3,4-dioxocyclobut-1-en-1-yl)amino)-3-hydroxy-N,N-dimethylpicolinamide] | bioavailability [1]: 39.8%; AUC(0-t) ([1]; 1 mg/kg, IV): 683 ng·h/mL; Cmax ([1]; 1 mg/kg, IV): 2280 ng/mL; AUC(0-t) ([1]; 1 mg/kg, PO): 272 ng·h/mL; Cmax ([1]; 1 mg/kg, PO): 158 ng/mL
11 | 6.4 | CN(C)C(=O)c1nccc(Nc2c(N[C@@H](c3nccc(F)c3F)C3(C)CCCC3)c(=O)c2=O)c1O [compound 021, (R)-4-((2-(((3,4-difluoropyridin-2-yl)(1-methylcyclopentyl)methyl)amino)-3,4-dioxocyclobut-1-en-1-yl)amino)-3-hydroxy-N,N-dimethylpicolinamide] | –
